Experimental data taken from ChEMBL document CHEMBL5331073, “Discovery of novel 7,7-dimethyl-6,7-dihydro-5H-pyrrolo[3,4-d]pyrimidines as ATR inhibitors based on structure-based drug design” (Eur J Med Chem, 2023).

Assays:
[1] = molecular target: Serine/threonine-protein kinase ATR (Homo sapiens, UniProt Q13535); test: Inhibition of ATR (unknown origin) using peptide as substrate preincubated for 10 mins followed by substrate addition by microplate reader analysis
LoVo [2] = test: Antiproliferative activity against ATM-deficient human LoVo cells assessed as reduction in cell proliferation at 0.2 uM incubated for 3 days by MTT assay; type: functional; parameters: scale not given: the % may be the effect or the level left; details: time 3 day
[3] = MRT(t) in Sprague-Dawley rat at 1 mg/kg, iv and measured upto 24 hrs by LC-MS analysis; type: ADME, organism-based; details: in vivo
[4] = MRT (0 to infinity) in Sprague-Dawley rat at 1 mg/kg, iv and measured upto 24 hrs by LC-MS analysis; type: ADME, organism-based; details: in vivo
in vitro [5] = details: human, liver microsomes
in vitro [6] = details: rat, liver microsomes
in vitro [7] = details: human, liver microsomes; remark: listed apart in the source
LoVo [8] = test: Antiproliferative activity against ATM-deficient human LoVo cells assessed as reduction in cell proliferation incubated for 3 days by MTT assay; type: functional, cell-based; details: 72 h
[9] = Volume of distribution at steady state in Sprague-Dawley rat at 1 mg/kg, iv and measured upto 24 hrs by LC-MS analysis; type: ADME, organism-based; details: in vivo, read-out: Vdss
[10] = MRT (0 to infinity) in Sprague-Dawley rat at 5 mg/kg, po and measured upto 24 hrs by LC-MS analysis; type: ADME, organism-based; details: in vivo
[11] = AUCt in Sprague-Dawley rat at 5 mg/kg, po and measured upto 24 hrs by LC-MS analysis; type: ADME, organism-based; parameters: time < 24 hrs, dose 5 mg/kg, route po; details: in vivo
[12] = Clearance in Sprague-Dawley rat at 1 mg/kg, iv and measured upto 24 hrs by LC-MS analysis; type: ADME, organism-based; details: in vivo
[13] = Half life in Sprague-Dawley rat at 5 mg/kg, po and measured upto 24 hrs by LC-MS analysis; type: ADME, organism-based; details: in vivo
[14] = AUCt in Sprague-Dawley rat at 1 mg/kg, iv and measured upto 24 hrs by LC-MS analysis; type: ADME, organism-based; parameters: dose 1 mg/kg, time < 24 hrs, route iv; details: in vivo
HT-29 = test: Antiproliferative activity against ATM-proficient human HT-29 cells assessed as reduction in cell proliferation incubated for 3 days by MTT assay; type: functional, cell-based; details: HT-29, 72 h
[15] = AUC (0 to infinity) in Sprague-Dawley rat at 5 mg/kg, po and measured upto 24 hrs by LC-MS analysis; type: ADME, organism-based; parameters: time < 24 hrs, dose 5 mg/kg, route po; details: in vivo
[16] = Tmax in Sprague-Dawley rat at 5 mg/kg, po and measured upto 24 hrs by LC-MS analysis; type: ADME, organism-based; details: in vivo
[17] = Oral bioavailability in Sprague-Dawley rat at 5 mg/kg and measured upto 24 hrs by LC-MS analysis; type: ADME, organism-based; details: in vivo
[18] = Cmax in Sprague-Dawley rat at 5 mg/kg, po and measured upto 24 hrs by LC-MS analysis; type: ADME, organism-based; parameters: time < 24 hrs, dose 5 mg/kg, route po; details: in vivo
in vitro [19] = details: human, liver microsomes; remark: listed apart in the source
in vitro [20] = details: rat, liver microsomes; remark: listed apart in the source
in vitro [21] = details: rat, liver microsomes; remark: listed apart in the source
[22] = Half life in Sprague-Dawley rat at 1 mg/kg, iv and measured upto 24 hrs by LC-MS analysis; type: ADME, organism-based; details: in vivo
[23] = MRT(t) in Sprague-Dawley rat at 5 mg/kg, po and measured upto 24 hrs by LC-MS analysis; type: ADME, organism-based; details: in vivo
[24] = AUC(0 to infinity) in Sprague-Dawley rat at 1 mg/kg, iv and measured upto 24 hrs by LC-MS analysis; type: ADME, organism-based; parameters: time < 24 hrs, dose 1 mg/kg, route iv; details: in vivo

Chain of Serine/threonine-protein kinase ATR (Q13535 whole entry): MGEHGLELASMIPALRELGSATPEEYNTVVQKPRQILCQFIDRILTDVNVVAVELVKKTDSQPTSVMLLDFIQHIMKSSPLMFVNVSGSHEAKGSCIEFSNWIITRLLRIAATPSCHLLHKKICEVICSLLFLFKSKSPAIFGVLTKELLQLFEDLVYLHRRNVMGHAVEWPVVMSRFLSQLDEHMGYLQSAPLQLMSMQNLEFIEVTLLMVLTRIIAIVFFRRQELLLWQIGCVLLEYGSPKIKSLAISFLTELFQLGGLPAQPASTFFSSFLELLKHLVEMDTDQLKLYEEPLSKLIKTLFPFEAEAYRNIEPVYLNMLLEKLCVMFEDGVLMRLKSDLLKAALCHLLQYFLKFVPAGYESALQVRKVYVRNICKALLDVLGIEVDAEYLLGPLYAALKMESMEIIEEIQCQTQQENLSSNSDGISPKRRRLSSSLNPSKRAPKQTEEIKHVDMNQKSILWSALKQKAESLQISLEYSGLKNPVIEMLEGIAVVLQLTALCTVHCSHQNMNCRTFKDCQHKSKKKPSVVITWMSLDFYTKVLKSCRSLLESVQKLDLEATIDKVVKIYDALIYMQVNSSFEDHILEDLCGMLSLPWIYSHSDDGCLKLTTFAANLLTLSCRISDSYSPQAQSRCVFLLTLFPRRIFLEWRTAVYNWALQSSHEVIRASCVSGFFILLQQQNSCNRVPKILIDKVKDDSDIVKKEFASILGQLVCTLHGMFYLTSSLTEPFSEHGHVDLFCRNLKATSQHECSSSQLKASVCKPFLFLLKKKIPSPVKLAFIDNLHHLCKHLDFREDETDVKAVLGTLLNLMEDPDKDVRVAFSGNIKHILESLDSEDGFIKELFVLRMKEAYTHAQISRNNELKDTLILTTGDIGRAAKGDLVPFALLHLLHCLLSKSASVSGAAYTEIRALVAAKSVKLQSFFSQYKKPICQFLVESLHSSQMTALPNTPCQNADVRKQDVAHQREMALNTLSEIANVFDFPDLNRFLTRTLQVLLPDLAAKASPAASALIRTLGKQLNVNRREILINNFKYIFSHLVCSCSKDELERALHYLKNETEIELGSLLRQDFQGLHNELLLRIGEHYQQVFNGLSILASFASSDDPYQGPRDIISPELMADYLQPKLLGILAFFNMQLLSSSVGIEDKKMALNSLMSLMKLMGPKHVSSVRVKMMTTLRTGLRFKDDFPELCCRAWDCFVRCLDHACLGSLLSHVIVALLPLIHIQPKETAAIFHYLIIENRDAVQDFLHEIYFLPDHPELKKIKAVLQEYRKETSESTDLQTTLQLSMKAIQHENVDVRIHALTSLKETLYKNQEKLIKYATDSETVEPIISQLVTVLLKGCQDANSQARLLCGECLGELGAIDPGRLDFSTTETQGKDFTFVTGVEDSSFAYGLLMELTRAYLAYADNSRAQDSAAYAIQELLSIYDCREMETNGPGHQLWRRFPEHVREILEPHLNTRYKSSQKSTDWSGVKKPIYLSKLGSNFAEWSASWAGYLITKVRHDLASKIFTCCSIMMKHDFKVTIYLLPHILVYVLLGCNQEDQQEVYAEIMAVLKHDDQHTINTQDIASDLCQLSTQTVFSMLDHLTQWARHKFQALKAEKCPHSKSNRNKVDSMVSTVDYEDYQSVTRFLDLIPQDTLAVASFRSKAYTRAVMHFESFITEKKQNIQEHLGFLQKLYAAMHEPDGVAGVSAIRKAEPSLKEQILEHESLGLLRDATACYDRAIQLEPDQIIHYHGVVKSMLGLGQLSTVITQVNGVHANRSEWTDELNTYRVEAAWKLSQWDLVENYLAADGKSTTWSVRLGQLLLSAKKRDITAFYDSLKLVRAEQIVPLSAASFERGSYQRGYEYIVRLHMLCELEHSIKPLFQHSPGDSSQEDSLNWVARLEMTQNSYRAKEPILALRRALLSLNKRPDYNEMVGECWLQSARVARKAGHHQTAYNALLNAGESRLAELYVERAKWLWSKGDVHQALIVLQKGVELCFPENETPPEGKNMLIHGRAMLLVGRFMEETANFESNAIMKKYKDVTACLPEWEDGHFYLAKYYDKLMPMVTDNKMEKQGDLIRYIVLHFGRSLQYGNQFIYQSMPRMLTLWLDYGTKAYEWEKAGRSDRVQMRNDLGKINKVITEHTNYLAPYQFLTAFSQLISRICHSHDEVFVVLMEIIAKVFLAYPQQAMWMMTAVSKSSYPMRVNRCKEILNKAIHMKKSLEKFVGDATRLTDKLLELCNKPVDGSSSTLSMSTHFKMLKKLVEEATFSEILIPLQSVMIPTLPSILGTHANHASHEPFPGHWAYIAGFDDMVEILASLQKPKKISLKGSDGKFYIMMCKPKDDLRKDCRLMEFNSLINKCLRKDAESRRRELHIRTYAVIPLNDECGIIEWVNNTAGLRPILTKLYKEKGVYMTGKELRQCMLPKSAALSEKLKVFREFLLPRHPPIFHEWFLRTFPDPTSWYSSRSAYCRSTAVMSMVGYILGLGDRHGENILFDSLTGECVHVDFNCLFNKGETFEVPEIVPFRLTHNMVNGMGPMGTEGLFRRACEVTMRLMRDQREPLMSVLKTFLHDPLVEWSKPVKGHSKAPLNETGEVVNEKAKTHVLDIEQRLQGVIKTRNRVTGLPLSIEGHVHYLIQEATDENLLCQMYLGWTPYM

Compound CC(C)C(=O)N1CCc2c(nc(-c3cccc4[nH]ccc34)nc2N2CCOC[C@H]2C)C1 has an IC50 [1] of 15 nM.

With C[C@@H]1COCCN1c1nc(-c2cccc3[nH]ccc23)nc2c1CN(C(=O)C1CCC1)C2(C)C the IC50 [1] was 7 nM and the Activity (LoVo [2]) was under 45%.

For CCC(=O)N1Cc2c(N3CCOC[C@H]3C)nc(-c3cccc4[nH]ccc34)nc2C1(C)C, the IC50 [1] was 2 nM and the Activity (LoVo [2]) was under 45%.

With CCC(=O)N1CCc2nc(-c3cccc4[nH]ccc34)nc(N3CCOC[C@H]3C)c2C1 the IC50 [1] was over 1100 nM.

Compound C[C@@H]1COCCN1c1nc(-c2cccc3[nH]ccc23)nc2c1CN(C(=O)C(C)(C)C)C2(C)C has an IC50 [1] of 12 nM and an Activity (LoVo [2]) of under 45%.

In the case of CC(=O)N1CCc2c(N3CCOC[C@H]3C)nc(-c3cccc4[nH]ccc34)nc2C12CCC2, the IC50 [1] is reported as 35 nM.

For C[C@@H]1COCCN1c1nc(-c2cccc3[nH]ccc23)nc2c1CCN(C(=O)C1CC1)C2(C)C, the IC50 [1] was 8 nM.

For CC(=O)N1Cc2c(N3CCOC[C@H]3C)nc(-c3cccc4[nH]ccc34)nc2C1(C)C, the IC50 [1] was 2 nM and the Activity (LoVo [2]) was under 45%.

In the case of COc1ccc(C(=O)N2Cc3c(N4CCOC[C@H]4C)nc(-c4cccc5[nH]ccc45)nc3C2(C)C)cc1, the MRT last at 24 h [3] is reported as 2.99 h, the MRT inf [4] is reported as 3.3 h and the CLint scaled at 1 h, 1 µM (in vitro [5]) is reported as 139 mL/min/kg. It also gave a half-life at 1 h, 1 µM (in vitro [6]) of 0.302 h, a microsomal CLint at 1 h, 1 µM (in vitro [7]) of 147 µL/min/mg and an IC50 (LoVo [8]) of 128 nM. It also gave a Vd [9] of 2.23 L/kg, an MRT inf [10] of 11.3 h and an AUC(0-t) at 24 h [11] of 452 ng·h/mL. It also gave an IC50 [1] of 3 nM, a clearance [12] of 11.3 mL/min/kg and a half-life [13] of 10 h. For the same compound, the AUC(0-t) at 24 h [14] was 1440 ng·h/mL, the IC50 (HT-29) was 387 nM and the AUC(0-inf) [15] was 729 ng·h/mL. It also gave a Tmax [16] of 1 h, a bioavailability [17] of 6.3% and a Cmax [18] of 83.1 ng/mL. For the same compound, the half-life at 1 h, 1 µM (in vitro [19]) was 0.158 h, the microsomal CLint at 1 h, 1 µM (in vitro [20]) was 76.6 µL/min/mg and the CLint scaled at 1 h, 1 µM (in vitro [21]) was 138 mL/min/kg. It also gave a half-life [22] of 3.02 h, an MRT last at 24 h [23] of 7.08 h and an AUC(0-inf) [24] of 1470 ng·h/mL.

With CCC(=O)N1CCc2c(N3CCOC[C@H]3C)nc(-c3cccc4[nH]ccc34)nc2C12CCC2 the IC50 [1] was 23 nM.

In the case of COc1ccc(C(=O)N2CCc3c(nc(-c4cccc5[nH]ccc45)nc3N3CCOC[C@H]3C)C2)cc1, the IC50 [1] is reported as 51 nM.

With COc1cccc(C(=O)N2CCc3c(N4CCOC[C@H]4C)nc(-c4cccc5[nH]ccc45)nc3C2(C)C)c1 the IC50 [1] was 5 nM.

Compound C[C@@H]1COCCN1c1nc(-c2cccc3[nH]ccc23)nc2c1CCN(C(=O)c1ccccc1)C2(C)C has a CLint scaled at 1 h, 1 µM (in vitro [5]) of 53.7 mL/min/kg, a half-life at 1 h, 1 µM (in vitro [6]) of 0.637 h and a microsomal CLint at 1 h, 1 µM (in vitro [7]) of 56.8 µL/min/mg. For the same compound, the IC50 (LoVo [8]) was 574 nM, the IC50 [1] was 9 nM and the IC50 (HT-29) was 1640 nM. The half-life at 1 h, 1 µM (in vitro [19]) was 0.408 h, the microsomal CLint at 1 h, 1 µM (in vitro [20]) was 36.4 µL/min/mg and the CLint scaled at 1 h, 1 µM (in vitro [21]) was 65.5 mL/min/kg.

Compound C[C@@H]1COCCN1c1nc(-c2cccc3[nH]ccc23)nc2c1CCN(C(=O)c1ccc(F)cc1)C2(C)C has an IC50 [1] of 18 nM.

Compound C[C@@H]1COCCN1c1nc(-c2cccc3[nH]ccc23)nc2c1CCN(C(=O)Cc1cccs1)C2(C)C has an IC50 [1] of 9 nM.

C[C@@H]1COCCN1c1nc(-c2cccc3[nH]ccc23)nc2c1CCN(C(=O)c1ccc(C(F)(F)F)cc1)C2(C)C gave an IC50 [1] of over 100 nM.

Work on CCOC(=O)N1CCc2c(N3CCOC[C@H]3C)nc(-c3cccc4[nH]ccc34)nc2C1(C)C yielded an IC50 [1] of 18 nM.

Work on C[C@@H]1COCCN1c1nc(-c2cccc3[nH]ccc23)nc2c1CCN(C(=O)CN1CCN(C)CC1)C2(C)C yielded an IC50 [1] of 52 nM.

Work on CCC(=O)N1CCc2c(N3CCOC[C@H]3C)nc(-c3cccc4[nH]ccc34)nc2C1(C)C yielded a CLint scaled at 1 h, 1 µM (in vitro [5]) of 195 mL/min/kg, a half-life at 1 h, 1 µM (in vitro [6]) of 0.233 h and a microsomal CLint at 1 h, 1 µM (in vitro [7]) of 207 µL/min/mg. The IC50 (LoVo [8]) was 779 nM, the IC50 [1] was 9 nM and the IC50 (HT-29) was 2470 nM. The half-life at 1 h, 1 µM (in vitro [19]) was 0.112 h, the microsomal CLint at 1 h, 1 µM (in vitro [20]) was 98.8 µL/min/mg and the CLint scaled at 1 h, 1 µM (in vitro [21]) was 178 mL/min/kg.

In the case of C[C@@H]1COCCN1c1nc(-c2cccc3[nH]ccc23)nc2c1CN(C(=O)C1CC1)CC2, the IC50 [1] is reported as 111 nM.

With C[C@@H]1COCCN1c1nc(-c2cccc3[nH]ccc23)nc2c1CN(C(=O)c1ccc(OC(F)(F)F)cc1)C2(C)C the IC50 [1] was 42 nM.

Work on Cc1cccc(C(=O)N2CCc3c(N4CCOC[C@H]4C)nc(-c4cccc5[nH]ccc45)nc3C2(C)C)c1 yielded an IC50 [1] of 17 nM.

CC(C)C(=O)N1Cc2c(N3CCOC[C@H]3C)nc(-c3cccc4[nH]ccc34)nc2C1(C)C showed an IC50 [1] of 8 nM and an Activity (LoVo [2]) of under 45%.

COc1ccc(C(=O)N2Cc3c(N4CCOC[C@H]4C)nc(-c4cccc5[nH]ccc45)nc3C2(C)C)cc1OC gave an IC50 [1] of 7 nM.

Compound C[C@@H]1COCCN1c1nc(-c2cccc3[nH]ccc23)nc2c1CN(C(=O)c1ccc(OC(F)F)cc1)C2(C)C has an IC50 [1] of 5 nM and an Activity (LoVo [2]) of under 45%.

In the case of C[C@@H]1COCCN1c1nc(-c2cccc3[nH]ccc23)nc2c1CCN(C(=O)c1cccc(Cl)c1)C2(C)C, the IC50 [1] is reported as 43 nM.
